Where a chain is given by its changes, count along the chain named.
How the values were obtained:
[1] = biological target: T1, Dihydropyrimidine dehydrogenase (DPYD) (Homo sapiens, UniProt Q12882); assay: uracil accumulation in media of primary human hepatocytes treated with inhibitor, LC/MS/MS (endogenous DPYD); format: cell-based
T1 sequence (Q12882 4-1025): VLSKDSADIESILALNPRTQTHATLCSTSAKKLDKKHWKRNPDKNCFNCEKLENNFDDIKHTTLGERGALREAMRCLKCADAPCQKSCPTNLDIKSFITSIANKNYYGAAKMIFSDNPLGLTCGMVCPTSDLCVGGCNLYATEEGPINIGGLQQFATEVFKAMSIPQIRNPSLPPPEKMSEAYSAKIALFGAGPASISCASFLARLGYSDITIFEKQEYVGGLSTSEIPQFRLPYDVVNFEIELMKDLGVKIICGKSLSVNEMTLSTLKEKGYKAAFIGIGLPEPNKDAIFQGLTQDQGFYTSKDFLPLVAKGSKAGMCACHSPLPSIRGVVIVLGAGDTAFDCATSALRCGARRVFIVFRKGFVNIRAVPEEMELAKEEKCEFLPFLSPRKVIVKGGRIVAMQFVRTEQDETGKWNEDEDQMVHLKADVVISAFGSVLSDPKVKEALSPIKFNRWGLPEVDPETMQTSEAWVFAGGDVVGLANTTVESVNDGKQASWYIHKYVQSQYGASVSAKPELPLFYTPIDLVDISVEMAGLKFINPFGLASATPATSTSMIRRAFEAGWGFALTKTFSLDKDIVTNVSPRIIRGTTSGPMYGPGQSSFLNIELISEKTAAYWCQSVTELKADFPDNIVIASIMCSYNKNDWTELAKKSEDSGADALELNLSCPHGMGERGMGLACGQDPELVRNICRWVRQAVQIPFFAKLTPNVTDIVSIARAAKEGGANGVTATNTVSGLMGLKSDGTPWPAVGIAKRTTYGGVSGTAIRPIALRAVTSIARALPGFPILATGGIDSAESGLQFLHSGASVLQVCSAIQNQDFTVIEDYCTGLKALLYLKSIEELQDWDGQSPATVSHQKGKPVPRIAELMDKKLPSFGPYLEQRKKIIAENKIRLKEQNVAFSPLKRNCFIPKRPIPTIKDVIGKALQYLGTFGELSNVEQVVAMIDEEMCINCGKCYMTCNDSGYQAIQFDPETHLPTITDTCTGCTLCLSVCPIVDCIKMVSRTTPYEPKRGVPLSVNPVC

[2] = biological target: T1, Dihydropyrimidine dehydrogenase (DPYD); assay: steady-state kinetics of purified enzyme, fluorometric NADPH depletion; substrate inhibition model (kcat); format: biochemical; parameters: recombinant wild type DPYD, expressed from pET28a(+) in E. coli
Experimental: steady-state kinetics of purified enzyme, fluorometric NADPH depletion; substrate inhibition model (kcat) on Dihydropyrimidine dehydrogenase (DPYD) | The kinetic measurements of DPYD were carried out by varying concentrations of uracil.

[3] = biological target: T2, Dihydropyrimidine dehydrogenase (DPYD) (Homo sapiens, UniProt Q12882, L310S); assay: steady-state kinetics of purified mutant enzyme, fluorometric NADPH depletion; substrate inhibition model (kcat); format: biochemical
T2 construct: recombinant L310S mutant DPYD, expressed from pET28a(+) in E. coli
T2 sequence (Q12882 4-1025 L310S): T1 sequence (Q12882 4-1025) with L307S

| SMILES | IC50 [1] | steady-state kinetics of purified enzyme, fluorometric NADPH depletion; substrat [2] | steady-state kinetics of purified mutant enzyme, fluorometric NADPH depletion; s [3] |
| --- | --- | --- | --- |
| Oc1cc(O)c(Cl)cn1 [Gimeracil] | 56 nM | – | – |
| O=c1cc[nH]c(=O)[nH]1 [uracil] | – | 65 ± 4 min⁻¹ | 99 ± 5 min⁻¹ |

From article PMC9388600, “Uncovering the roles of dihydropyrimidine dehydrogenase in fatty-acid induced steatosis using human cellular models” (Scientific Reports, 2022)
